Results as given in patent publication US20110064713A1 (priority 2009, published 2011).

System: DU-145 cells
Type: cell-based, Human

C=C1[C@@H](C)[C@H]2[C@H](Cc3ccccc3)NC(=O)[C@]23[C@H](OC(C)=O)/C=C/[C@@](C)(O)C(=O)[C@@H](C)C/C=C/[C@H]3[C@@H]1O [Cytochalasin-D]
Relative Wound Density at 24 Hours, Mean: 3.3 ± 0.2
Relative Wound Density at 24 Hours, Percent Relative to Media: 4%
effect on cell migration: did not migrate
